Patent US20100261877A1, “PROCESS FOR ISOLATING THERAPEUTIC PEPTIDES” (priority 2009, published 2010)
Where a SMILES comes first, the peptide text is derived from it. Bridges are numbered along the chain shown (N, C = ends).

What was measured:
[1] = Solubility of SEQ ID NO. 1 in aqueous isopropanol solution; format: physicochemical
Source text: 1 that is able to be dissolved in aqueous isopropanol solution, depending on the v/v % isopropanol:water. The very sharp increase in solubility between 40-60% isopropanol was very unexpected and the discovery of this unexpected result allowed for the successful isolation of SEQ ID NO. 1 by precipitation which was necessary for a viable large manufacturing scale-up required for commercial production.

[2] = Solubility of SEQ ID NO. 1 in aqueous ethanol solution; format: physicochemical
Source text: The above general procedures were followed replacing isopropyl alcohol (IPA) with ethanol.
1 that is able to be dissolved in the aqueous ethanol solution, depending on the v/v % ethanol:water. The very sharp increase in solubility between 50-70 ethanol was very unexpected and the discovery of this unexpected result allowed for the successful isolation of SEQ ID NO. 1 by precipitation which was necessary for a viable large manufacturing scale-up required for commercial production.

[3] = test system: small bowel motility, fluid secretion, visceral pain; conditions: oral, mice and rats; cited from earlier work
[4] = molecular target: T1, guanylate cyclase type C receptor (GCC) (Homo sapiens, UniProt P25092); conditions: in vitro, varying concentrations; cited from earlier work
T1 construct: endogenous in cells
T1 sequence (P25092 24-1073): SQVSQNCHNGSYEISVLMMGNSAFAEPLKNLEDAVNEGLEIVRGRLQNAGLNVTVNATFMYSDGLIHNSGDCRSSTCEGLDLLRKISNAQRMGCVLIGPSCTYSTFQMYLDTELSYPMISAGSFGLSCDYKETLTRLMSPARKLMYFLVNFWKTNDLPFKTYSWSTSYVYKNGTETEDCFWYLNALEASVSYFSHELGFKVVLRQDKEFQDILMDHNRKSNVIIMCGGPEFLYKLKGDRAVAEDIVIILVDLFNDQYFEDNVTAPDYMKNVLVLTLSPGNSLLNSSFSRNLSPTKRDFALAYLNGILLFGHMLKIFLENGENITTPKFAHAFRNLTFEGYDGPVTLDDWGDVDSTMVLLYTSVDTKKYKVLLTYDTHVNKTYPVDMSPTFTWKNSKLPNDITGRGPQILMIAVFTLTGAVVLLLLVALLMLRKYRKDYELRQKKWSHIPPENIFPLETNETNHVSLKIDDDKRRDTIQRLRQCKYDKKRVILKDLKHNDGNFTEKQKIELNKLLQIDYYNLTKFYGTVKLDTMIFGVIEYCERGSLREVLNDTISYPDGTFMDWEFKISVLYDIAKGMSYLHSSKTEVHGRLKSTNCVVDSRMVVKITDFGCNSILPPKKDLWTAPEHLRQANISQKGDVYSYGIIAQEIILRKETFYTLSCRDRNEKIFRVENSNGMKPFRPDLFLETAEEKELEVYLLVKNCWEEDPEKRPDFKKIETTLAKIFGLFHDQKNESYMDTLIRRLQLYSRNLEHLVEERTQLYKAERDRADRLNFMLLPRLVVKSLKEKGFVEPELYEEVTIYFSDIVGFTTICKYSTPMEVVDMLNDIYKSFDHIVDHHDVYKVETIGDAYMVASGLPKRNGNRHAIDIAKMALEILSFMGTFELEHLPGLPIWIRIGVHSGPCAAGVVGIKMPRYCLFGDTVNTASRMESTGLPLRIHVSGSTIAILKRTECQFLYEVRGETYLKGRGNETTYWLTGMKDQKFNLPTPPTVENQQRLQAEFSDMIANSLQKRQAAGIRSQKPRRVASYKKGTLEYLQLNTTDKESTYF

For `C[C@@H]1NC(=O)[C@@H]2CCCN2C(=O)[C@H](CC(N)=O)NC(=O)[C@@H]2CSSC[C@H](N)C(=O)N[C@H]3CSSC[C@H](NC1=O)C(=O)N[C@@H]([C@@H](C)O)C(=O)NCC(=O)N[C@H](C(=O)N[C@@H](Cc1ccc(O)cc1)C(=O)O)CSSC[C@H](NC(=O)[C@H](Cc1ccc(O)cc1)NC(=O)[C@H](CCC(=O)O)NC3=O)C(=O)N2` [SEQ ID No. 1, Cys-Cys-Glu-Tyr-Cys-Cys-Asn-Pro-Ala-Cys-Thr-Gly-Cys-Tyr] (H-CCEYCCNPACTGCY-OH; disulfide 1-6, 2-10, 5-13), the “amount of SEQ ID NO. 1 able to be dissolved” value (“amount of SEQ ID NO. 1 able” for short) ([1]; IPA 0 v/v % in water) was 1.3 mg/mL, the “amount of SEQ ID NO. 1 able” value ([1]; IPA 5 v/v % in water) was 1.8 mg/mL and the “amount of SEQ ID NO. 1 able” value ([1]; IPA 10 v/v % in water) was 2.3 mg/mL. For the same molecule, the “amount of SEQ ID NO. 1 able” value ([1]; IPA 15 v/v % in water) was 3.3 mg/mL, the “amount of SEQ ID NO. 1 able” value ([1]; IPA 20 v/v % in water) was 4.3 mg/mL and the “amount of SEQ ID NO. 1 able” value ([1]; IPA 25 v/v % in water) was 4.8 mg/mL. The “amount of SEQ ID NO. 1 able” value ([1]; IPA 30 v/v % in water) was 6.0 mg/mL, the “amount of SEQ ID NO. 1 able” value ([1]; IPA 35 v/v % in water) was 7.0 mg/mL and the “amount of SEQ ID NO. 1 able” value ([1]; IPA 40 v/v % in water) was 13.8 mg/mL. The “amount of SEQ ID NO. 1 able” value ([1]; IPA 45 v/v % in water) was 47.8 mg/mL, the “amount of SEQ ID NO. 1 able” value ([1]; IPA 50 v/v % in water) was 120.3 mg/mL and the “amount of SEQ ID NO. 1 able” value ([1]; IPA 55 v/v % in water) was 162.5 mg/mL. For the same molecule, the “amount of SEQ ID NO. 1 able” value ([1]; IPA 60 v/v % in water) was 138.5 mg/mL, the “amount of SEQ ID NO. 1 able” value ([1]; IPA 65 v/v % in water) was 106.5 mg/mL and the “amount of SEQ ID NO. 1 able” value ([1]; IPA 70 v/v % in water) was 65.7 mg/mL. For the same molecule, the “amount of SEQ ID NO. 1 able” value ([1]; IPA 75 v/v % in water) was 26.5 mg/mL, the “amount of SEQ ID NO. 1 able” value ([1]; IPA 80 v/v % in water) was 19.0 mg/mL and the “amount of SEQ ID NO. 1 able” value ([1]; IPA 85 v/v % in water) was 12.5 mg/mL. The “amount of SEQ ID NO. 1 able” value ([1]; IPA 90 v/v % in water) was 9.0 mg/mL, the “amount of SEQ ID NO. 1 able” value ([1]; IPA 95 v/v % in water) was 4.5 mg/mL and the “amount of SEQ ID NO. 1 able” value ([1]; IPA 100 v/v %) was 0.3 mg/mL. The “amount of SEQ ID NO. 1 able” value ([2]; EtOH 0 v/v % in water) was 0.50 mg/mL, the “amount of SEQ ID NO. 1 able” value ([2]; EtOH 5 v/v % in water) was 0.25 mg/mL and the “amount of SEQ ID NO. 1 able” value ([2]; EtOH 10 v/v % in water) was 0.75 mg/mL. For the same molecule, the “amount of SEQ ID NO. 1 able” value ([2]; EtOH 15 v/v % in water) was 1.00 mg/mL, the “amount of SEQ ID NO. 1 able” value ([2]; EtOH 20 v/v % in water) was 0.75 mg/mL and the “amount of SEQ ID NO. 1 able” value ([2]; EtOH 25 v/v % in water) was 3.00 mg/mL. For the same molecule, the “amount of SEQ ID NO. 1 able” value ([2]; EtOH 30 v/v % in water) was 3.00 mg/mL, the “amount of SEQ ID NO. 1 able” value ([2]; EtOH 35 v/v % in water) was 2.75 mg/mL and the “amount of SEQ ID NO. 1 able” value ([2]; EtOH 40 v/v % in water) was 2.25 mg/mL. For the same molecule, the “amount of SEQ ID NO. 1 able” value ([2]; EtOH 45 v/v % in water) was 3.50 mg/mL, the “amount of SEQ ID NO. 1 able” value ([2]; EtOH 50 v/v % in water) was 9.25 mg/mL and the “amount of SEQ ID NO. 1 able” value ([2]; EtOH 55 v/v % in water) was 179.25 mg/mL. The “amount of SEQ ID NO. 1 able” value ([2]; EtOH 60 v/v % in water) was 347.50 mg/mL, the “amount of SEQ ID NO. 1 able” value ([2]; EtOH 65 v/v % in water) was 430.00 mg/mL and the “amount of SEQ ID NO. 1 able” value ([2]; EtOH 70 v/v % in water) was 441.50 mg/mL. The “amount of SEQ ID NO. 1 able” value ([2]; EtOH 75 v/v % in water) was 304.00 mg/mL, the “amount of SEQ ID NO. 1 able” value ([2]; EtOH 80 v/v % in water) was 45.25 mg/mL and the “amount of SEQ ID NO. 1 able” value ([2]; EtOH 85 v/v % in water) was 10.25 mg/mL. For the same molecule, the “amount of SEQ ID NO. 1 able” value ([2]; EtOH 90 v/v % in water) was 10.00 mg/mL, the “amount of SEQ ID NO. 1 able” value ([2]; EtOH 95 v/v % in water) was 3.75 mg/mL and the “amount of SEQ ID NO. 1 able” value ([2]; EtOH 100 v/v %) was 0.50 mg/mL. For the same molecule, the “effects on small bowel motility, fluid secretion and visceral pain” value [3] was “promising effects on increasing small bowel motility, fluid secretion and decreasing visceral pain” and the “cGMP in human intestinal cells” value [4] was “increased cGMP”.
